Experiments:
[1] = system: rats exposed to acute altitude hypoxia; assay: Myocardial enzyme activity in rats exposed to acute altitude hypoxia; format: in vivo, Wistar rat
Protocol: (§1) Select healthy Wistar rats weight 160-200 g, half female and half male. After feeding for 3 days, these Wistar rats are randomly divided into ten groups according to their body weight, each group has 16±2 rats. The groups are divided as follows: five groups of the hypoxic exposure drug test group, respectively, are given 0.91 mg/kg, 1.83 mg/kg, 3.66 mg/kg, 7.31 mg/kg, and 14.63 mg/kg drugs. […] After continuous intragastric administration for 7 days, the animals in the hypoxic exposure group are simultaneously put into the decompression and hypoxia compound experimental chamber, the hatch is closed, and the pressure is reduced at a speed of 10 m/s. After being raised to an altitude of 6000 m and maintained for 8 hours, the speed in 10 m/s drops is reduced to normal altitude, open the hatch, and then take out the animal, collect blood samples (after standing for 1 hour, the supernatant is centrifuged and stored at −20° C.), and liver tissue samples. Detection indicator includes body weight, serum blood glucose, ATP, lactic acid, endothelin, nitric oxide, SOD, CO, MDA related to oxidative stress, and total protein, albumin, triglycerides, total cholesterol, high-density lipoprotein cholesterol, low-density lipoprotein cholesterol, glutamic pyruvic transaminase, total bilirubin, gluamic oxalacetic transaminase, serum urea nitrogen, creatinine, uric acid, lactate dehydrogenase, creatine kinase, α-hydroxybutyrate dehydrogenase; liver ATP, hepatic glycogen. Except that the formal oxygen control animal group is not put into the decompression and hypoxia compound experimental chamber, other experimental conditions and detection indicators are the same.
(§2) Measure blood glucose, total protein, albumin, triglycerides, total cholesterol, high-density lipoprotein cholesterol, low-density lipoprotein cholesterol, glutamic-pyruvic transaminase, total bilirubin, glutamic oxalacetic transaminase, serum urea nitrogen, creatinine, uric acid, lactate dehydrogenase, creatine kinase, α-hydroxybutyrate dehydrogenase, blood homocysteine by using an automatic blood biochemical analyzer.

[2] = system: rats exposed to acute altitude hypoxia; assay: Renal function in rats exposed to acute altitude hypoxia; format: in vivo, Wistar rat
Protocol: as §1, §2

[3] = system: rats with acute altitude hypoxia injury; assay: Oxidative stress indexes of rats with acute altitude hypoxia injury; format: in vivo, Wistar rat
Text: Operate according to the instructions, and then measure the absorbance value of each tube, and afterwards calculate the content of malondialdehyde in the sample to be tested according to the formula. […] The latter oxidizes hydroxylamine to form nitrite. It appears purplish red under the action of chromogenic agent. Measure its absorbance by a visible light spectrophotometer. When the measured sample contains superoxide dismutase, it has specific inhibitory effect on superoxide anion free radicals, make formed nitrite reduced. […] The superoxide dismutase activity in the tested sample can be calculated by formula calculation. […] The latter can form a stable complex with phenanthrophins and measure its antioxidant capacity by colorimetry. Operate according to the kit instructions, measure the absorbance of each tube at a wavelength of 520 nm, and then calculate the total antioxidant capacity in the sample to be tested according to the formula.

[4] = Mice weight before hypoxia tolerance test of simulated 10000 m altitude acute decompression; details: administration for 14 days
[5] = female rats, hypoxia, 0.91 mg/kg
[6] = female rats, hypoxia, 1.83 mg/kg
[7] = female rats, hypoxia, 3.66 mg/kg
[8] = female rats, hypoxia, 7.31 mg/kg
[9] = female rats, hypoxia, 14.63 mg/kg
[10] = female rats, normoxia, 3.66 mg/kg
[11] = male rats, hypoxia, 14.63 mg/kg

For O=C(O)c1cc(C(=O)O)c2c(n1)C(=O)C(=O)c1cc(C(=O)O)[nH]c1-2 [PQQ, pyrroloquinoline quinone], the “Creatine Kinase” value [1, 5] was 505.43 ± 202.03 U/L, the Lactate dehydrogenase [1, 5] was 627.43 ± 253.66 U/L and the α-hydroxybutyrate dehydrogenase [1, 5] was 270.28 ± 111.79 U/L. The “Creatine Kinase” value [1, 6] was 508.57 ± 235.83 U/L, the Lactate dehydrogenase [1, 6] was 650.00 ± 338.13 U/L and the α-hydroxybutyrate dehydrogenase [1, 6] was 286.71 ± 154.38 U/L. For the same molecule, the “Creatine Kinase” value [1, 7] was 459.14 ± 239.34 U/L, the Lactate dehydrogenase [1, 7] was 544.14 ± 314.26 U/L and the α-hydroxybutyrate dehydrogenase [1, 7] was 233.43 ± 147.72 U/L. For the same molecule, the “Creatine Kinase” value [1, 8] was 454.86 ± 241.51 U/L, the Lactate dehydrogenase [1, 8] was 499.71 ± 320.46 U/L and the α-hydroxybutyrate dehydrogenase [1, 8] was 210.14 ± 140.24 U/L. The “Creatine Kinase” value [1, 9] was 439.86 ± 222.18 U/L, the Lactate dehydrogenase [1, 9] was 496.86 ± 259.65 U/L and the α-hydroxybutyrate dehydrogenase [1, 9] was 208.86 ± 112.12 U/L. The “effect on serum lactic dehydrogenase, creatine kinase, α-hydroxybutyrate dehydrogenase activity” value ([1]; female rats, normoxia) was “increasing”, the “Creatine Kinase” value [1, 10] was 1024.00 ± 313.62 U/L and the Lactate dehydrogenase [1, 10] was 1199.14 ± 204.93 U/L. The α-hydroxybutyrate dehydrogenase [1, 10] was 537.29 ± 92.21 U/L, the “effect on serum lactic dehydrogenase, creatine kinase, α-hydroxybutyrate dehydrogenase activity” value ([1]; hypoxia exposed female rats) was “has been not found” and the “effect on serum lactate dehydrogenase, creatine kinase, α-hydroxybutyrate dehydrogenase” value ([1]; hypoxia exposed male rats) was “has not been found”. For the same molecule, the “Creatine Kinase” value ([1]; male rats, hypoxia, 0.91 mg/kg) was 443.63 ± 260.18 U/L, the Lactate dehydrogenase ([1]; male rats, hypoxia, 0.91 mg/kg) was 463.38 ± 364.37 U/L and the α-hydroxybutyrate dehydrogenase ([1]; male rats, hypoxia, 0.91 mg/kg) was 218.00 ± 173.09 U/L. For the same molecule, the “Creatine Kinase” value ([1]; male rats, hypoxia, 1.83 mg/kg) was 544.63 ± 418.71 U/L, the Lactate dehydrogenase ([1]; male rats, hypoxia, 1.83 mg/kg) was 650.13 ± 573.72 U/L and the α-hydroxybutyrate dehydrogenase ([1]; male rats, hypoxia, 1.83 mg/kg) was 286.75 ± 260.98 U/L. The “Creatine Kinase” value ([1]; male rats, hypoxia, 3.66 mg/kg) was 544.50 ± 243.30 U/L, the Lactate dehydrogenase ([1]; male rats, hypoxia, 3.66 mg/kg) was 588.13 ± 360.36 U/L and the α-hydroxybutyrate dehydrogenase ([1]; male rats, hypoxia, 3.66 mg/kg) was 256.63 ± 154.55 U/L. For the same molecule, the “Creatine Kinase” value ([1]; male rats, hypoxia, 7.31 mg/kg) was 640.25 ± 333.16 U/L, the Lactate dehydrogenase ([1]; male rats, hypoxia, 7.31 mg/kg) was 767.38 ± 546.88 U/L and the α-hydroxybutyrate dehydrogenase ([1]; male rats, hypoxia, 7.31 mg/kg) was 325.63 ± 238.56 U/L. The “Creatine Kinase” value [1, 11] was 510.89 ± 240.61 U/L, the Lactate dehydrogenase [1, 11] was 510.44 ± 275.48 U/L and the α-hydroxybutyrate dehydrogenase [1, 11] was 218.67 ± 118.08 U/L. The Creatinine [2, 5] was 14.67 ± 1.46 µmol/L, the Serum urea nitrogen [2, 5] was 6.85 ± 0.90 mmol/L and the Uric acid [2, 5] was 163.43 ± 12.51 µmol/L. For the same molecule, the Creatinine [2, 6] was 14.23 ± 1.90 µmol/L, the Serum urea nitrogen [2, 6] was 5.98 ± 0.62 mmol/L and the Uric acid [2, 6] was 152.71 ± 16.58 µmol/L. For the same molecule, the Creatinine [2, 7] was 12.71 ± 1.98 µmol/L, the Serum urea nitrogen [2, 7] was 5.79 ± 0.62 mmol/L and the Uric acid [2, 7] was 151.14 ± 18.48 µmol/L. For the same molecule, the Creatinine [2, 8] was 16.06 ± 1.19 µmol/L, the Serum urea nitrogen [2, 8] was 6.00 ± 0.98 mmol/L and the Uric acid [2, 8] was 152.43 ± 25.28 µmol/L. For the same molecule, the Creatinine [2, 9] was 13.51 ± 1.33 µmol/L, the Serum urea nitrogen [2, 9] was 5.86 ± 0.54 mmol/L and the Uric acid [2, 9] was 155.33 ± 21.56 µmol/L. For the same molecule, the “effect on serum urea nitrogen, creatinine and uric acid” value ([2]; female rats, normoxia) was “no significant effects”, the Creatinine [2, 10] was 19.37 ± 4.32 µmol/L and the Serum urea nitrogen [2, 10] was 6.23 ± 0.36 mmol/L. For the same molecule, the Uric acid [2, 10] was 193.57 ± 20.80 µmol/L, the “effect on serum urea nitrogen, creatinine and uric acid” value ([2]; hypoxia exposed female rats) was “no significant effects” and the “effect on serum urea nitrogen and creatinine” value ([2]; hypoxia exposed male rats) was “no significant effect”. The “effect on serum uric acid content” value ([2]; hypoxia exposed male rats, low-dose) was “reduce serum uric acid content”, the Creatinine ([2]; male rats, hypoxia, 0.91 mg/kg) was 18.44 ± 1.46 µmol/L and the Serum urea nitrogen ([2]; male rats, hypoxia, 0.91 mg/kg) was 5.13 ± 0.75 mmol/L. It also gave a Uric acid ([2]; male rats, hypoxia, 0.91 mg/kg) of 134.25 ± 19.08 µmol/L, a Creatinine ([2]; male rats, hypoxia, 1.83 mg/kg) of 21.59 ± 3.31 µmol/L and a Serum urea nitrogen ([2]; male rats, hypoxia, 1.83 mg/kg) of 5.44 ± 1.13 mmol/L. For the same molecule, the Uric acid ([2]; male rats, hypoxia, 1.83 mg/kg) was 142.60 ± 10.78 µmol/L, the Creatinine ([2]; male rats, hypoxia, 3.66 mg/kg) was 21.90 ± 2.88 µmol/L and the Serum urea nitrogen ([2]; male rats, hypoxia, 3.66 mg/kg) was 6.37 ± 1.64 mmol/L. The Uric acid ([2]; male rats, hypoxia, 3.66 mg/kg) was 171.38 ± 14.92 µmol/L, the Creatinine ([2]; male rats, hypoxia, 7.31 mg/kg) was 22.40 ± 1.53 µmol/L and the Serum urea nitrogen ([2]; male rats, hypoxia, 7.31 mg/kg) was 5.91 ± 0.86 mmol/L. For the same molecule, the Uric acid ([2]; male rats, hypoxia, 7.31 mg/kg) was 202.16 ± 17.13 µmol/L, the Creatinine [2, 11] was 22.49 ± 3.00 µmol/L and the Serum urea nitrogen [2, 11] was 6.23 ± 1.36 mmol/L. The Uric acid [2, 11] was 182.22 ± 15.80 µmol/L, the “Endo Dialdehyde” value [3, 5] was 15.07 ± 1.91 nmol/L and the Superoxide dismutase [3, 5] was 66.11 ± 4.18 U/ml. For the same molecule, the Total antioxidants [3, 5] was 10.52 ± 1.08 U/ml, the “Endo Dialdehyde” value [3, 6] was 13.96 ± 1.33 nmol/L and the Superoxide dismutase [3, 6] was 60.79 ± 2.56 U/ml. For the same molecule, the Total antioxidants [3, 6] was 10.06 ± 0.77 U/ml, the “Endo Dialdehyde” value [3, 7] was 13.73 ± 0.27 nmol/L and the Superoxide dismutase [3, 7] was 56.82 ± 3.80 U/ml. The Total antioxidants [3, 7] was 10.84 ± 0.47 U/ml, the “Endo Dialdehyde” value [3, 8] was 14.14 ± 2.68 nmol/L and the Superoxide dismutase [3, 8] was 56.65 ± 2.97 U/ml. For the same molecule, the Total antioxidants [3, 8] was 10.37 ± 0.75 U/ml, the “Endo Dialdehyde” value [3, 9] was 14.81 ± 1.37 nmol/L and the Superoxide dismutase [3, 9] was 56.16 ± 3.64 U/ml. For the same molecule, the Total antioxidants [3, 9] was 10.59 ± 1.65 U/ml, the effect on malondialdehyde ([3]; female rats, normoxia) was “can slightly increase” and the “effect on serum superoxide dismutase and total antioxidants” value ([3]; female rats, normoxia) was “no significant effects”. For the same molecule, the “Endo Dialdehyde” value [3, 10] was 14.39 ± 0.85 nmol/L, the Superoxide dismutase [3, 10] was 52.21 ± 1.23 U/ml and the Total antioxidants [3, 10] was 11.28 ± 0.83 U/ml. For the same molecule, the “effect on serum superoxide dismutase activity” value ([3]; hypoxia exposed female rats) was “can increase”, the “effect on serum total antioxidants and malondialdehyde” value ([3]; hypoxia exposed female rats) was “no significant effects” and the “effect on serum superoxide dismutase activity” value ([3]; hypoxia exposed male rats) was “can increase”. For the same molecule, the “effect on serum total antioxidants and malondialdehyde” value ([3]; male rats) was “no significant effect”, the Malonaldehyde ([3]; male rats, hypoxia, 0.91 mg/kg) was 2.79 ± 0.62 nmol/L and the Superoxide dismutase ([3]; male rats, hypoxia, 0.91 mg/kg) was 196.26 ± 4.15 U/ml. For the same molecule, the Total antioxidants ([3]; male rats, hypoxia, 0.91 mg/kg) was 3.17 ± 1.40 U/ml, the Malonaldehyde ([3]; male rats, hypoxia, 1.83 mg/kg) was 2.89 ± 1.09 nmol/L and the Superoxide dismutase ([3]; male rats, hypoxia, 1.83 mg/kg) was 193.38 ± 4.53 U/ml. For the same molecule, the Total antioxidants ([3]; male rats, hypoxia, 1.83 mg/kg) was 2.77 ± 1.10 U/ml, the Malonaldehyde ([3]; male rats, hypoxia, 3.66 mg/kg) was 3.9 ± 1.39 nmol/L and the Superoxide dismutase ([3]; male rats, hypoxia, 3.66 mg/kg) was 189.59 ± 5.46 U/ml. The Total antioxidants ([3]; male rats, hypoxia, 3.66 mg/kg) was 3.81 ± 0.97 U/ml, the Malonaldehyde ([3]; male rats, hypoxia, 7.31 mg/kg) was 3.15 ± 0.99 nmol/L and the Superoxide dismutase ([3]; male rats, hypoxia, 7.31 mg/kg) was 186.20 ± 6.32 U/ml. The Total antioxidants ([3]; male rats, hypoxia, 7.31 mg/kg) was 3.62 ± 1.94 U/ml, the Malonaldehyde [3, 11] was 3.59 ± 1.15 nmol/L and the Superoxide dismutase [3, 11] was 179.58 ± 6.32 U/ml. The Total antioxidants [3, 11] was 1.49 ± 2.30 U/ml, the “Mice weight Female 1 day” value ([4]; 1.32 mg/kg) was 16.13 ± 1.20 g and the “Mice weight Female 7 days” value ([4]; 1.32 mg/kg) was 20.45 ± 1.37 g. The “Mice weight Male 1 day” value ([4]; 1.32 mg/kg) was 16.36 ± 1.47 g, the “Mice weight Male 7 days” value ([4]; 1.32 mg/kg) was 22.88 ± 1.78 g and the “Mice weight Male 14 days” value ([4]; 1.32 mg/kg) was 30.85 ± 2.32 g. For the same molecule, the “Mice weight Female 1 day” value ([4]; 2.64 mg/kg) was 15.75 ± 1.07 g.
